The nature of data set [1]: volatility of prior-art nitrification inhibitor. To be noted: stated as disadvantageous for long-term applications. The format is physicochemical.
The subject of the next data set is nitrification. In words: inhibition of nitrification in soil incubation test. Type of data set: cell-based, soil microbial biomass. The settings on record: 100 g soil, 10 mg ammoniumsulfate-N, 20° C., 14 days, best obtained NI value. The method, then: The compounds of the invention have been tested as follows in terms of the inhibition of nitrification: 100 g soil is filled into 500 ml plastic bottles (e.g. soil sampled from the field) and is moistened to 50% water holding capacity. The soil is incubated at 20° C. for two weeks to activate the microbial biomass. 1 ml test solution, containing the compound in the appropriate concentration (usually 0.3 or 1% of nitrogen N), or DMSO and 10 mg nitrogen in the form of ammoniumsulfate-N is added to the soil and everything mixed well. Bottles are capped but loosely to allow air exchange. The bottles are then incubated at 20° C. for 0 and 14 days. For analysis, 300 ml of a 1% K2SO4-solution is added to the bottle containing the soil and shaken for 2 hours in a horizontal shaker at 150 rpm. Then the whole solution is filtered through a filter (Macherey-Nagel Filter MN 807¼). Ammonium and nitrate content is then analyzed in the filtrate in an autoanalyzer at 550 nm (Merck, AA11). The inhibition (NI @ a specified concentration) is calculated as follows: [formula]

As for `CCOc1cc(C)[nH]n1` [3-ethoxy-5-methylpyrazole], the volatility result in data set [1] is listed as “high volatility”. `C#CCOc1ccn[nH]1` [Compound 1]: the “NI* @ 0.3%” value with nitrification (compound at 0.3% of nitrogen N) is on record as 60.6. In the data set with nitrification (compound at 1% of nitrogen N), the “NI* @ 1%” value is 74.7.

The values above are taken from patent US11498885B2, “Use of pyrazole propargyl ethers as nitrification inhibitors” (BASF SE, priority 2018, dated 2022).
